Reference: patent publication US8653049B2, “Normuramyl glycopeptide compounds” (priority 2008, dated 2014)
Entries after “also recorded” stand apart in the source; their conditions may differ.

Legend:
Salmonella enteritidis = experiment: Stimulation of innate immunity against Salmonella Enteritidis; conditions: for protective effect / survival rate in S. Enteritidis infection: 0 or 1 case of death by day 12; for Day 6 Intest.: clear/infected/dead / Day 6 Liver: clear/infected/dead / Day 6 Lungs: clear/infected/dead / Day 6 Spleen: clear/infected/dead / Day 12 Intest.: clear/infected/dead / Day 12 Liver: clear/infected/dead / Day 12 Lungs: clear/infected/dead / Day 12 Spleen: clear/infected/dead: liposomal, 20 nmol per dose p.o. 72 and 24 h before infection (LD50), 5 mice
[1] = rabbits, liposomal preparations s.c. 100 nmol/kg, 3 rabbits per group; passes if below 1.1° C.
Procedure: The test was conducted in an authorised laboratory, ITEST plus s.r.o., Bilé Vchýnice 10, 533 13 Vápno u Prelouce, Czech Republic, according to guide-lines CL 2005.
Rabbits (New Zeeland albino, 4-6 kg, 3 animals per group) were used for testing.
Liposomal preparations of muramyl glycopeptide derivatives were administered s.c. (100 nmol/kg). Empty liposomes were used as negative control and the liposomal as well as the free form of muramyl dipeptide (MDP) (25 μg/kg, corresponding to 50.7 nmol/kg) served as positive control. Temperature was measured in 1, 2, 3, 4,6 and 24 hour intervals.
Empty liposomes were used as negative control; and liposomal as well as free muramyl dipeptide (MDP) (50.7 nmol/kg) served as positive control. B30-norAbu-MDP (MT01, structure on page 5) served as additional control. Temperature was measured in 1, 2, 3, 4, 6 and 24 h intervals. The preparation passed the test if the Sum of ΔTmax remained below 1.1° C. (3 rabbits per group)

[2] = test system: granulocyte-macrophage progenitor cells (GM-CFC); experiment: Colony stimulating activity (CSA) of serum on GM-CFC; type: in vivo, mouse; conditions: liposomal compounds; FIG. 32
Procedure: Determination of Colony stimulating activity (CSA) and co-stimulating activity (CoSA) in serum: Blood was taken at intervals from 5 to 48 h after injection of the test compounds, and the ability of the sera from treated mice to stimulate in vitro growth of colonies from granulocyte-macrophage progenitor cells (GM-CFC) was determined. CoSA was determined as the ability of tested compounds, sera of treated mice, or conditioned medium from cultures of adherent stromal cells to enhance the number of GM-CFC colonies induced by a sub-optimal concentration of rmIL-3 in the above-described GM-CFC assay. The concentration of rmIL-3 was adjusted to a value which yielded one third of the maximum number of colonies on a dose-dependent curve.

[3] = test system: NK sensitive K562 cell line; experiment: NK cell cytotoxicity of human PBMC, 51Cr-release against K562; type: cell-based; conditions: for dose response of NK cell activity: range 0.1 μM-100 μM, FIG. 28
Procedure: Ex vivo effects of test compounds on NK cells were evaluated on human peripheral blood mononuclear cells (PBMC). The NK cell cytotoxicity of healthy donors in the presence or absence of test compounds was measured in standard 4 hrs ^51Cr-release assay against NK sensitive K562 cell line in effector (PBMC) to target (K562) ratio 16:1. Test compounds were added at a concentration of 10^−7 mol/ml.
Testing of compounds 23, 24, 32, 33, 40 and 41 for their capacity to induce cell-mediated cytotoxicity of human eripheral blood mononuclear cells (PBMCs) is shown in FIGS. 27 and 28. All donors were healthy. […] The cytotoxicity of untreated controls (30.5%) was renormalized to 100%.

[4] = test system: Friend leukemia virus (FLV); experiment: Friend leukemia virus infection: survival, TER-119+ cells, spleen; conditions: day 16; FIG. 24
[5] = Survival after lethal irradiation (10 Gy); type: in vivo, mice (strain ICR); conditions: 200 nmol s.c. 24 h before 10 Gy; FIG. 37
Procedure: Preparations (200 nmol of active substance) were applied to mice (strain ICR, female, 3 months of age, 10 mice per group) by s.c. route 24 h before irradiation (radiation dose of 10 Gy from a ^60Co gamma-ray source at a dose rate of 0.285 Gy/min). PBS and empty liposome served as negative controls, free and liposomal muramyl dipeptide (MDP) served as positive controls.

[6] = test system: GM-CFC progenitors in bone marrow; experiment: GM-CFC recovery, test compounds before sub-lethal irradiation; type: in vivo, ICR/CD-1 mice; conditions: s.c. 100 nmol 24 h before 6 Gy, day 13, FIGS. 33-35
Procedure: (§1) Institite of Cancer Research (ICR/CD-1) mice (female, age of 3 months, 3-4 per group) were stimulated by s.c. administration of test compounds (volume of 200 μl, 100 nmol per dose) 24 h before sublethal γ-irradiation (6 Gy, ^60Co γray source Chisostat, Chirana Ltd., Czech Republic, at a dose of 0.285 Gy/min.). Mice were sacrified at day 13 and recovery of GM-CFC in femour was assayed by counting of colonies (CFC) formed after cultivation in medium. Non-irradiated mice were used as control for normal GM-CFC count in femour. PBS and empty liposomes were used as controls for spontaneous recovery. Liposomal MDP was used as reference standard.
(§2) The following parameters of hemopoiesis were evaluated: • a) Blood leukocyte counts and bone marrow cellularity. Blood leukocytes (samples of blood drawn from an incision of the tail vein) and nucleated cell elements of the femoral bone marrow (femoral diaphyses flushed with saline) were estimated by means of Coulter Counter (Model ZN, Coulter Electronics). • b) Colony-forming cells in spleen. Endogenous spleen colony-forming units (E-CFUs) were measured on day 9 post the whole-body irradiation with 6.5 Gy (5 mice per group) according to Till and McCulloch. • c) GM-CFC progenitors in bone marrow. Femoral bone marrow cells were obtained from mice by flushing the femour with sterile IMDM medium. Harvested cells were calculated and diluted to 1.5×10^5 cells/ml and plated in triplicate in a semisolid environment created by plasma clot (Iscovess modification of Dulbecco's medium, 20% of fetal calf serum, 10% of colony-stimulating factor, 10% of citrate plasma, and CaCl2 1.5 mg/ml). The cultures were incubated for 7 days at 37° C. in 5% CO2. Colonies of at least 50 cells were scored at 40× magnification.
Statistical significance between individual experimental groups of mice in hemopoietic parameters was calculated by one-way analysis of variance. The Newman-Keuls test for comparison of all pairs of columns and the Dunnett test for comparison of all columns with the control column were used in the analysis.

[7] = test system: r-hsp90 (Candida albicans hsp90) specific IgG antibodies; experiment: Proteoliposome vaccine against C. albicans hsp90: antibody (humoral) response, ELISA; type: in vivo, BALB/c mice; conditions: Experiment 12.2; liposomal compound (5%) + Ni-HSP90, boost day 14; FIG. 13
Procedure: (§3) Proteoliposomes were prepared by coupling recombinant hsp90 antigen (r-hsp90, 6×HISTag) via a metal chelating lipid to liposomes containing muramyl glycopeptide derivatives as adjuvant component. BALB/c […] mice 4 to 5 weeks old (female 20±2 g, 5 animal per group) were immunized by the intradermal route either with 20 μg of free or liposomal r-hsp90 (volume of 60 μl) either with or without L18-norAbu-MDP and boosted 21 days later by the same composition of experimental vaccine. FCA was used as positive control r-hsp90. Liposomal vaccine composition 20 μg of rHSP90 antigen, 5% metallochelating lipid, 5% particular MT analogue, 90% phospolipids.
Blood samples were collected from the tail vein into heparinised capillary PCV tubes. After centrifugation, the upper part of the tube, containing […] blood serum, was cut off, thrown into […] diluting solution and thoroughly shaken. Thus, a basic dilution of 1:33 was obtained. The pre-diluted sera were kept at −20° C. Blood samples were collected before the first immunization, 2 weeks thereafter and subsequently at weekly intervals up to the 4th week after the second immunisation. Specific IgG antibodies in blood serum samples were determined by the standard indirect ELISA procedure. The data obtained were processed statistically using the non-parametric Mann-Whitney U-test.
Proteoliposomes with muramyl glycopeptide derivatives were prepared as described above, but the boost was carried out already after 14 days. The liposomal vaccine composition was as for Experiment Set 1: 20 μg of rHSP90 antigen, 5% metallochelating lipid, 5% particular MT analogue, 90% phospolipids.
Controls: Aluminum hydroxide (AlOH) and Freund complete adjuvans (FCA) were used as positive controls. PBS with empty liposomes was used as negative control (control). Humoral response was tested at day 14 after vaccination (post priming) and at day 20 after vaccination (post booster). Antibody titres were wer assayed by ELISA.

[8] = test system: NK-sensitive YAC1 target cells; experiment: NK cell-mediated cytotoxicity of spleen mononuclear cells, 51Cr-release against YAC1; conditions: FLV-inoculated mice, day 16, 18 h incubation with YAC1; FIG. 26
[9] = test system: GM-CFC progenitors in bone marrow; experiment: GM-CFC recovery, test compounds after sub-lethal irradiation; type: in vivo, ICR/CD-1 mice; conditions: s.c. 100 nmol 24 h after 6 Gy; FIG. 36
Procedure: as §1, §2
The method is exactly as described above except that the test compounds (volume of 200 μl, 100 nmol per dose) were administered 24 h after sublethal γ-irradiation (6 Gy).

[10] = test system: IFN-γ production in splenocytes stimulated by rHSP90; experiment: Proteoliposome vaccine against C. albicans hsp90: cellular response (IFN-γ in splenocytes stimulated by rHSP90); type: in vivo, BALB/c mice; conditions: Experiment 12.3; liposomal compound (5%) + Ni-HSP90, day 20; FIG. 14
Procedure: as §3
Production of INF-γ was mesured by standard ELISPOT assay (R&D, USA). Immunised mice were sacrified 4 weeks after booster imunisation and splenocytes were isolated, and stimulated by r-hsp90 (50 μg/ml) and spots were counted.
Proteoliposomes with muramyl glycopeptide derivatives were prepared as described above. Experimental conditions were as for Experiment 12.2.
Cell mediated immune response against rHSP90 antigen formulated in liposomal experimental vaccine was tested at day 20 (6 days after booster). Mice were sacrificed, splenocytes were purified and production of IFN-γ in splenocytes stimulated by rHSP90 was assayed by flow cytometry.

| SMILES | protective effect / survival rate in S. Enteritidis infection (Salmonella enteritidis) | Day 6 Intest.: clear/infected/dead (Salmonella enteritidis) | Day 6 Liver: clear/infected/dead (Salmonella enteritidis) | Day 6 Lungs: clear/infected/dead (Salmonella enteritidis) | Day 6 Spleen: clear/infected/dead (Salmonella enteritidis) | Day 12 Intest.: clear/infected/dead (Salmonella enteritidis) | Day 12 Liver: clear/infected/dead (Salmonella enteritidis) | Day 12 Lungs: clear/infected/dead (Salmonella enteritidis) | Day 12 Spleen: clear/infected/dead (Salmonella enteritidis) | +ΔTmax (Sum of ΔTmax) [1] | GM-CFC stimulating activity (CSA) in serum [2] | dose response of NK cell activity [3] | antibody response to r-hsp90 proteoliposomes [7] | NK cell activity (cell-mediated cytotoxicity of SMCs) [8] | other results |
| --- | --- | --- | --- | --- | --- | --- | --- | --- | --- | --- | --- | --- | --- | --- | --- |
| CCCCCCCCCCCCCCCCCC(=O)NCCCC[C@H](NC(=O)CC[C@@H](NC(=O)[C@H](CC)NC(=O)CO[C@H]1[C@H](O)[C@@H](CO)OC(O)[C@@H]1NC(C)=O)C(N)=O)C(=O)O (stereo partly drawn) [Compound 32, N-[2-O-(2-Acetamido-2,3-dideoxy-α-D-glucopyranosid-3-yl)-glycoloyl]-L-α-aminobutanoyl-D-isoglutaminyl-L-lysine(stearoyl)] | good protective effects | 5/0/0 | 3/2/0 | 4/1/0 | 3/2/0 | 2/3/0 | 1/4/0 | 4/1/0 | 1/4/0 | 0.5 °C | substantially better | negative dose response | strong and comparable to AlOH | stimulate NK cell functional activity | lag time to reach full NK stimulating activity ([3]; no vs 18 h pre-incubation): most pronounced; clonal expansion of TER-119+ erythroleukaemia cells in spleen [4]: dose-dependent, positive effect; survival of lethally irradiated mice [5]: best compound; also recorded: best performance; GM-CFC progenitor cells in bone marrow [6]: strongest effect; GM-CFC progenitor cells in bone marrow ([6]; listed as compound 32): best compound |
| CCCCCCCCCCCCCCC(CCCCCCCCCCCCCC)C(=O)NCCCC[C@H](NC(=O)CC[C@@H](NC(=O)[C@H](CC)NC(=O)CO[C@H]1[C@H](O)[C@@H](CO)OC(O)[C@@H]1NC(C)=O)C(N)=O)C(=O)O (stereo partly drawn) [Compound 33, N-[2-O-(2-Acetamido-2,3-dideoxy-α-D-glucopyranosid-3-yl)-glycoloyl]-L-α-aminobutanoyl-D-isoglutaminyl-L-lysine(2-tetradecylhexadecanoyl)] | good protective effects | 5/0/0 | 5/0/0 | 5/0/0 | 2/3/0 | 2/2/1 | 1/3/1 | 2/2/1 | 1/3/1 | 0.4 °C | no effect | positive dose response | strong and comparable to AlOH | partially 33, had an inhibitory effect | GM-CFC progenitor cells in bone marrow [9]: strongest performers; cell-mediated response to r-hsp90 proteoliposomes [10]: good results |
